Laboratory results published in PMC6233196 (Nature Communications, 2018).
pKd, pKi: −log10 of the molar value. “Also recorded” adds a separate entry of the source.

What was measured:
GluN1 ABD = test system: GluN1 ABD; design: method as in PMID 16641235; conditions: cited from earlier work; for pKi: isolated domains
GluN1/GluN3A receptors [1] = target: T1, GluN1/GluN3A receptors (Rattus norvegicus, UniProt P35439+Q9R1M7); assay: Whole-cell patch-clamp of glycine currents in HEK293 cells expressing wild-type GluN1/GluN3A; conditions: for Peak and steady-state current potentiation compared with CGP-78608: MDL-29951 200 nM, 7-CKA 10 µM, L-689560 1 µM pre-incubated; for Effect of reducing treatment on glycine-evoked responses: 20 min, glycine 100 µM
Experimental: HEK293 cells were used for heterologous expression of recombinant GluN1/GluN3 receptors studied using whole-cell patch-clamp. […] Recordings were performed 24–48 h following cell transfection. The extracellular solution contained (in mM): 140 NaCl, 2.8 KCl, 1 CaCl2, 10 HEPES and 20 Sucrose (290–300 mOsm), pH adjusted to 7.3 using NaOH. […] Drugs and agonists were applied using a multi-barrel solution exchanger (RSC 200; Bio-logic). Recordings were performed at −60 mV and at room temperature. […] EC50, a and nH were set as free parameters.

[2] = test system: CA1 pyramidal cells of GluN3A-KO mice; assay: Glycine puffs onto voltage-clamped CA1 pyramidal cells, hippocampal slices of GluN3A-KO mice; assay type: cell-based, mouse; conditions: glycine 10 mM puff
Experimental: (§1) Ex-vivo electrophysiological experiments were performed on coronal slices from the brains of juvenile wild-type (WT) and GluN3A-KO mice originating from the same litters (8–12 days old). Slices were prepared as described previously. Briefly, mice were anesthetized with isofluorane before decapitation. After isolation, the portion of the brain containing the hippocampus was placed in bicarbonate-buffered saline (BBS) at 2–5 °C for a few minutes. Slices (300 μm) were then cut using a 7000 smz-2 vibratome (Campden). The slicing procedure was performed in an ice-cold solution containing (in mM): 130 K^+- gluconate, 15 KCl, 0.05 EGTA, 20 Hepes, 25 glucose, 1 CaCl2, and 6 MgCl2 supplemented with DL-APV (50 µM).
(§2) CA1 neurons were recorded from both the ventral and the dorsal hippocampus. Cells were visualized with a combination of Dodt contrast, and an on-line video contrast enhancement. CA1 cells could be easily identified in the red light with which slices were visualized using a CoolSnap HQ2 CCD camera (Photometrics) run by MetaMorph (Universal Imaging). Whole-cell recordings were performed with an EPC-10 double amplifier (Heka Elektronik) run by PatchMaster (Heka). […] Series resistance was partially compensated (max 65%), whereas liquid junction potentials were not corrected. Recordings were performed at a holding potential of −60 mV.

[3] = target: T2, GluN1-F484A/GluN3A receptors (Rattus norvegicus, UniProt P35439+Q9R1M7, F484A); assay: Whole-cell patch-clamp in HEK293 cells, GluN1-F484A mutant; assay type: cell-based; conditions: CGP-78608 500 nM
T2 construct: while we record from intact (i.e. full length) membrane-imbedded receptors; expressed in transfected cells; host or cells: HEK293 cells
Experimental: (§3) Cells were transfected using polyethylenimine with GluN1, GluN3A and GFP plasmids at a 1:3:1 ratio (0.3, 0.9 and 0.3 ng/µl respectively). Recordings were performed 24–48 h following cell transfection. […] EC50, a and nH were set as free parameters.

[4] = target: GluN1-C744S-C798S/GluN3A-C859S-C913S receptors (Rattus norvegicus, UniProt P35439+Q9R1M7, C744S/C798S/C859S/C913S); conditions: CNQX 50 µM
Experimental: as §3

[5] = target: T3, GluN1/GluN3A receptors in CA1 pyramidal cells (Mus musculus, UniProt A2AIR5+P35438); assay: Glycine puffs onto voltage-clamped CA1 pyramidal cells, hippocampal slices of wild-type mice; assay type: cell-based
T3 construct: from tissue; host or cells: acute hippocampal slices (CA1 pyramidal cells) of P8-P12 wild-type mice
Experimental: as §1, §2

HEK cells = assay: Tolerability of reducing agent when patching HEK cells
Description: In the current work, TCEP was used on HEK cells and DTE on Xenopus oocytes.
When patching HEK cells, however, we observed that
Accordingly, we switched to TCEP,
DTE and TCEP, while both powerful to break disulfide
bonds, differ in their membrane permeability (DTE can cross membranes but not TCEP).

GluN1 (native receptors) = conditions: read-out: Ki for GluN1; cited from earlier work
GluN1/GluN3A receptors [6] = target: T1, GluN1/GluN3A receptors; assay: Two-electrode voltage-clamp in Xenopus oocytes expressing wild-type GluN1/GluN3A; assay type: cell-based; design: while we record from intact (i.e. full length) membrane-imbedded receptors; expressed in transfected cells; host or cells: HEK293 cells; conditions: TCEP 5 mM, 20 min; glycine 100 µM
Experimental: Oocytes from Xenopus lævis (Xenopus Express, Rennes, France) were used for heterologous expression of recombinant GluN1/GluN3A receptors studied using two-electrode voltage-clamp (TEVC). TEVC recordings were performed 3–4 days following injection. […] Each oocyte was co-injected with a mixture of GluN1 and GluN3A cDNA at a concentration of 50 ng/µl and at a 1:1 ratio. The standard external solution contained (in mM): 100 NaCl, 2.5 KCl, 0.3 BaCl2, 5 HEPES, 0.01 DTPA (diethylenetriamine-pentaacetic acid), pH 7.3. […]
EC50, a and nH were set as free parameters.

GluN3A ABD = conditions: read-out: Glycine affinity; isolated GluN3A ABD; cited from earlier work

T1 sequence (Q9R1M7 24-1135, other chains not shown): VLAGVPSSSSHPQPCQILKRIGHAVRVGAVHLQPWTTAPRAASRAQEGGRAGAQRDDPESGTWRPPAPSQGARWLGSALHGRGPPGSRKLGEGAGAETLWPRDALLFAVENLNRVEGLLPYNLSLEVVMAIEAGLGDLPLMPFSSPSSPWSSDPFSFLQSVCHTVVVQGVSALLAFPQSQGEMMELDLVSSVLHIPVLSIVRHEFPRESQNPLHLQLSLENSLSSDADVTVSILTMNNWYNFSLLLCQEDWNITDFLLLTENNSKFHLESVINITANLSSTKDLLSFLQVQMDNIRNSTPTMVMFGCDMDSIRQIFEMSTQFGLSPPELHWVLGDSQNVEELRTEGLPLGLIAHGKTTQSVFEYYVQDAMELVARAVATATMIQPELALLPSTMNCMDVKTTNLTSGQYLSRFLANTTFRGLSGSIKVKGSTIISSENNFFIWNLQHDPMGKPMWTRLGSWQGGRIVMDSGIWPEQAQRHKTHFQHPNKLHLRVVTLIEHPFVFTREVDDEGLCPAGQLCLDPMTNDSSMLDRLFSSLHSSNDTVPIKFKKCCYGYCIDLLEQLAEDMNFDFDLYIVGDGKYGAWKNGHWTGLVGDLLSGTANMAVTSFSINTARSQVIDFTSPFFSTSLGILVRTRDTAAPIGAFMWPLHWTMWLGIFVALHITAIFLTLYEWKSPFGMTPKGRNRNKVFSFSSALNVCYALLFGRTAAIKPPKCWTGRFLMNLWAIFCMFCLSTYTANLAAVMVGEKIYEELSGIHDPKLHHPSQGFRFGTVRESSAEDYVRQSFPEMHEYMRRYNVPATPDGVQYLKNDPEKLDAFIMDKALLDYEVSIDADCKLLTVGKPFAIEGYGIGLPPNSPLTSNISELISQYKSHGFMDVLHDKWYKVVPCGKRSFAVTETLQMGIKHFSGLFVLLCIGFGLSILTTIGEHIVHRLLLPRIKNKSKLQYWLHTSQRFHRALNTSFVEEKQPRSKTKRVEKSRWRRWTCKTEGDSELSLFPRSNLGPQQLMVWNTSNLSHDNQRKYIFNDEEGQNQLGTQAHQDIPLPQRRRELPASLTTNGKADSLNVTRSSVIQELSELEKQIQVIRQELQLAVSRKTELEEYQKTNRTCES
T3 sequence (A2AIR5 27-1135, other chains not shown): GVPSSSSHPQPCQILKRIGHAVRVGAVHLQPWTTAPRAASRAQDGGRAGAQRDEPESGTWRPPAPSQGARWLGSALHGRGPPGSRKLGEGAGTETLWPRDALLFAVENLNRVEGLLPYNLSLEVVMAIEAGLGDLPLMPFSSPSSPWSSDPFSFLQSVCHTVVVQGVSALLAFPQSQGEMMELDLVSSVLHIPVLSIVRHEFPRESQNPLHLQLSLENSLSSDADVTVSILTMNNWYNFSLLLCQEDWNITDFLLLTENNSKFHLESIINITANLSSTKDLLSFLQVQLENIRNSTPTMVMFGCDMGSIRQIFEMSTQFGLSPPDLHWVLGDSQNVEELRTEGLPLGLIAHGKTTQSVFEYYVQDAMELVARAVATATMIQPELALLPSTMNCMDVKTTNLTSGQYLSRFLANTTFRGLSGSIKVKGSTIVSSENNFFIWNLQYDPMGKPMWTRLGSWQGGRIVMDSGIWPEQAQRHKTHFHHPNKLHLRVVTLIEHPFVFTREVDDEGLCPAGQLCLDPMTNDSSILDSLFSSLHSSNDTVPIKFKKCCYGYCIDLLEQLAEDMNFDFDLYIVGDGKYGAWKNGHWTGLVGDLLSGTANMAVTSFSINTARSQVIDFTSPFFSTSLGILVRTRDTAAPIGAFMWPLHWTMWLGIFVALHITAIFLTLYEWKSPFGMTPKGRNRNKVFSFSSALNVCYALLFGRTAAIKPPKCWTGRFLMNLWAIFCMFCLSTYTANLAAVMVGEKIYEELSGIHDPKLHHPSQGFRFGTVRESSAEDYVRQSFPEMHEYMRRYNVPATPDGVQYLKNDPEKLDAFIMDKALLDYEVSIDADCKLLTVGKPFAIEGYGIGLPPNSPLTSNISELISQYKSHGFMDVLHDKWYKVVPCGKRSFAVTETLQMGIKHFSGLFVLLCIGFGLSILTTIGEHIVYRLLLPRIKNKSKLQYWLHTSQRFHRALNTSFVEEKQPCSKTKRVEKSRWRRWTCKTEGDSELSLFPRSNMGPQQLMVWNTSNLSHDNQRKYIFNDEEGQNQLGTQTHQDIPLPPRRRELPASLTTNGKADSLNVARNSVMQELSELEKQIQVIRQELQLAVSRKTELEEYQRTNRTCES
T2 sequence (Q9R1M7 24-1135, other chains not shown): as the sequence (Q9R1M7 24-1135, other chains not shown) above
GluN1-C744S-C798S/GluN3A-C859S-C913S receptors, sequence (Q9R1M7 24-1135 C859S/C913S, other chains not shown): as the sequence (Q9R1M7 24-1135, other chains not shown) above, with C836S, C890S counted along it

O=C(Nc1ccccc1)N[C@H]1C[C@H](C(=O)O)Nc2cc(Cl)cc(Cl)c21 (relative stereo) [L-689560, trans-2-Carboxy-5,7-dichloro-4-phenylaminocarbonylamino-1,2,3,4-tetrahydroquinoline]
Selectivity for GluN1 vs GluN3 ABD (GluN1 ABD; binding studies on isolated agonist-binding domains): even better than CGP-78608 | pKi (GluN1 ABD): 7.53 | Peak and steady-state current potentiation compared with CGP-78608 (GluN1/GluN3A receptors [1]; glycine 1 mM): orders of magnitude lower

O=C(O)c1cc(O)c2ccc(Cl)cc2n1 [7-CKA, 7-Chlorokynureic acid]
pKi (GluN1 ABD): 5.59 | Peak and steady-state current potentiation compared with CGP-78608 (GluN1/GluN3A receptors [1]; glycine 1 mM): orders of magnitude lower

C[C@@H](NCc1cc(Br)cc2[nH]c(=O)c(=O)[nH]c12)P(=O)(O)O.Cl [CGP-78608, [(1 S)-1-[[(7-Bromo-1,2,3,4-tetrahydro-2,3-dioxo-5-quinoxalinyl)methyl]amino]ethyl]phosphonic acid hydrochloride]
pKi (GluN1 ABD): 8.19 | Glycine-induced inward current amplitude ([2]; bath CGP-78608 1 µM): 5.0 ± 0.6 pA | Potentiating effect on GluN1-F484A mutant [3]: insensitive; also recorded: almost completely abolished

N#Cc1cc2[nH]c(=O)c(=O)[nH]c2cc1[N+](=O)[O-] [CNQX, 6-Cyano-7-nitroquinoxaline-2,3-dione]
Outward displacement of holding current (GluN1/GluN3A receptors [1]; CNQX 50 µM, no added glycine): 0.6 ± 0.06 pA | Effect on tail currents following glycine removal ([4]; glycine 100 µM): inhibited the large tail currents | Displacement of holding current ([4]; no added glycine): 22.9 ± 8.3 pA

N[C@H](CO)C(=O)O [D-serine]
Agonist efficacy relative to glycine (GluN1/GluN3A receptors [1]; D-serine up to 500 µM vs glycine 100 µM, CGP-78608 500 nM): lower efficacy than glycine

O=C(O)c1cc(=O)c2c(Cl)cc(Cl)cc2[nH]1 [DCKA, 5-7-Dichlorokynurenic acid]
Glycine-induced current amplitude ([5]; bath DCKA 500 µM in presence of CGP-78608, WT): 10.2 ± 2.7 pA

O[C@H](CS)[C@@H](O)CS [DTE, dithioerythritol]
Tolerability by HEK cells (HEK cells): could induce cell toxicity

N[C@@H](CCC(=O)N[C@@H](CS)C(=O)NCC(=O)O)C(=O)O [GSH, reduced glutathione]
Effect of reducing treatment on glycine-evoked responses (GluN1/GluN3A receptors [1]; GSH 50 mM): completely modified the current phenotype

O=C(O)CCc1c(C(=O)O)[nH]c2cc(Cl)cc(Cl)c12 [MDL-29951, 2-carboxy-4,6-dichloro-1H-indole-3-propanoic acid]
pKi (GluN1 (native receptors)): 6.85 | Potentiating factors at higher concentration (GluN1/GluN3A receptors [1]; MDL-29951 2 µM, glycine 1 mM): smaller than those observed at 200 nM | Peak and steady-state current potentiation compared with CGP-78608 (GluN1/GluN3A receptors [1]; glycine 1 mM): orders of magnitude lower

O=C(O)CCP(CCC(=O)O)CCC(=O)O [TCEP, Tris(2-carboxyethyl)phosphine]
Effect of reducing treatment on glycine-evoked currents (GluN1/GluN3A receptors [6]): currents radically changed | Effect of reducing treatment on glycine-evoked responses (GluN1/GluN3A receptors [1]; TCEP 5 mM): drastic effects

NCC(=O)O [glycine, Glycine]
Glycine-induced inward current amplitude ([2]; control conditions): 6.0 ± 0.8 pA | pKd (GluN3A ABD): 7.39 | Glycine-induced inward current amplitude ([5]; glycine 10 mM puff, control conditions, WT P8-P12): 9.3 ± 1.4 pA
